In patent US20090275606A1, “Heterocyclic Compounds as MEK Inhibitors” (Novartis AG, priority 2008, published 2009) one finds GI50 data, which are given here for 14 compounds.

Each structure is given as a SMILES string.

The test system of this experiment is A375 cells. Put plainly: Cell viability assay in A375 cells (XTT). The following applies: Homo sapiens, A-375, 72 h, three days after compound addition. Format: cell-based. As to the method: The cell viability assay in A375 cells is set up in a 96-well plate format using XTT.
XTT is a yellow tetrazolium salt that is cleaved to an orange formazan dye by the mitochondria of metabolically active cells. The procedure allows for rapid determination in a microtitre plate, to give reproducible and sensitive results.
A375 cells are grown in DMEM media containing 10% FBS and 1 mM sodium pyruvate. Cells are trypsinized and seeded at 1000 cells/well. After allowing the cells to adhere overnight, compound is added to the wells at the following final concentrations: 10, 3, 1, 0.3, 0.1, 0.03, 0.01, 0.001, and 0.0001 μM. The assay is set up in triplicates for each concentration. DMSO concentrations are kept at 0.5%/well. Three days after compound addition, the XTT assay is performed. Wells are washed once with PBS. 100 μL of DMEM media without phenol red or FBS is added to each well. A working solution of XTT containing 1 mg/ml XTT and 100 μL of PMS (stock concentration 0.383 mg/ml) per 5 ml is prepared. 50 μL of the working solution of XTT is added to each well. Absorbance of the plate is read at 465 nm using a Spectramax 190 (Molecular Devices). The absorbance from wells with media and XTT alone, but without cells is considered the blank and subtracted from readings from all wells.
Percentage viability is calculated considering the blank subtracted value from wells treated with DMSO alone as 100% viable. GI50 values are calculated using Graphpad Prism, using non-linear regression curve fit for sigmoidal dose response (variable slope).
The cell viability assay is further described in Scudiero, et. al., Cancer Research (1988) 48, 4827-4833; Weislow, et. al., J. Natl. Cancer Institute, (1989) 81, 577-586; and Roehm, et. al., J. Immunol. Methods [1991]142:257-265.
`O=C(NOCC1CC1)c1c(Nc2ccc(Br)cc2F)cc(=O)n2c1CCC2` [Compound 4]: the GI50 was determined as 14 nM.

In turn, `CCONC(=O)c1c(Nc2ccc(I)cc2F)cc(=O)n2c1CCC2` [Compound 42] showed a GI50 of 3.6 nM.

In turn, `CCONC(=O)c1c(Nc2ccc(Br)cc2F)cc(=O)n2c1CCC2` [Compound 10] gave a GI50 of 40 nM.

Take `O=C(NOCC1CC1)c1c(Nc2ccc(I)cc2F)cc(=O)n2c1CCC2` [Compound 39]: it took 0.8 nM to inhibit growth by half (GI50).

For `O=C(NOCCO)c1c(Nc2ccc(I)cc2F)cc(=O)n2c1CCC2` [Compound 40], the GI50 was 0.7 nM.

On to `O=C(NOCC1CC1)c1c(Nc2ccc(I)cc2F)c(F)c(=O)n2c1CCC2` [Compound 45], for which growth was halved (GI50) at 0.4 nM.

`Cc1c(Nc2ccc(Br)cc2F)c(C(=O)NOCCO)c2n(c1=O)CCC2` [Compound 25] gave a GI50 of 10 nM.

Take `CCONC(=O)c1c(Nc2ccc(Br)cc2F)c(C)c(=O)n2c1CCC2` [Compound 27]: the GI50 came to 60 nM.

`CONC(=O)c1c(Nc2ccc(Br)cc2F)cc(=O)n2c1CCC2` [Compound 6] had a GI50 of 150 nM.

`CONC(=O)c1c(Nc2ccc(I)cc2F)cc(=O)n2c1CCC2` [Compound 41] showed a GI50 of 9 nM.

Compound `NC(=O)c1c(Nc2ccc(I)cc2F)cc(=O)n2c1CCC2` [Compound 38] returned a GI50 of 73 nM.

On to `O=C(NOCC1CC1)c1c(Nc2ccc(Br)cc2F)c(F)c(=O)n2c1CCC2` [Compound 20], for which the GI50 was 55 nM.

`Cc1c(Nc2ccc(Br)cc2F)c(C(=O)NOCC2CC2)c2n(c1=O)CCC2` [Compound 24] returned a GI50 of 36 nM.

The compound `O=C(NOCCO)c1c(Nc2ccc(I)cc2F)c(F)c(=O)n2c1CCC2` [Compound 46] came in with a GI50 of 6.7 nM.
